Measured values reported in patent US7704995B2 (Exelixis, Inc., priority 2003, dated 2010).

These compounds were tested against T1, Chk1 (Homo sapiens, UniProt O14757) (assay: Chk1 kinase assay: incorporation of γ-33P ATP into immobilized myelin basic protein). Conditions: Table 11; Chk1 only; read-out: Chk1 IC50.
T1 construct: purchased Upstate Biotechnology
T1 sequence (O14757 1-476): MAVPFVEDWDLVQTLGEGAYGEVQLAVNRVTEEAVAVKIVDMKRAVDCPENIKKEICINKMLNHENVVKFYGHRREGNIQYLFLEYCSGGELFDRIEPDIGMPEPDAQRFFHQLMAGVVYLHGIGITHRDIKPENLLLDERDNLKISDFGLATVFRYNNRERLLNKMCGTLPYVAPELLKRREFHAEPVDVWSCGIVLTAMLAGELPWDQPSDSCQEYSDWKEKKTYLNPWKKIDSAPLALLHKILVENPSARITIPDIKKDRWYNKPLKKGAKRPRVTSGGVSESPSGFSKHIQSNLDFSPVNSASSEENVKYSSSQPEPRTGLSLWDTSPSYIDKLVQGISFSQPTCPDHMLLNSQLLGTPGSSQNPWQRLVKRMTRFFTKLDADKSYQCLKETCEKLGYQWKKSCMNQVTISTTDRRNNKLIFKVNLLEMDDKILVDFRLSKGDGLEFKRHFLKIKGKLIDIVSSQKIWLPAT
Format: biochemical
Summary of the method: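 Plates coated with MBP, then kinase reactions in Hepes pH 7.6 buffer with 10 mM MgCl2 and 1% DMSO were started by adding unlabeled plus γ-33P ATP (10 μM for Chk1 at 10 nM enzyme; 30 μM for Chk2 at 20 nM enzyme). After 1 h at room temperature, plates were washed and counted.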

Q: With `Nc1ncc(-c2cccc(C(=O)NCc3ccccc3)c2)nc1C(=O)NCCCNC(=O)c1ccncc1` [Example 650, 3-amino-6-(3-{[(phenylmethyl)amino]carbonyl}phenyl)-N-{3-[(pyridin-4-ylcarbonyl)amino]propyl}pyrazine-2-carboxamide] as the compound, how does the IC50 read?
A: The IC50 was 1 to 10 µM.

Q: How did the IC50 turn out when `Nc1ncc(-c2cccc(C(=O)NCc3ccccc3)c2)nc1C(=O)NCCCNC(=O)c1cnc2ccccc2n1` [Example 651, N-[3-({[3-amino-6-(3-{[(phenylmethyl)amino]carbonyl}phenyl)pyrazin-2-yl]carbonyl}amino)propyl]quinoxaline-2-carboxamide] was run?
A: Its IC50 is at least 10 µM.

Q: Which IC50 does the source give for `Nc1ncc(-c2cccc(C(=O)NCc3ccccc3)c2)nc1C(=O)NCCCNC(=O)c1ccc(C(F)(F)F)nc1` [Example 652, 3-amino-6-(3-{[(phenylmethyl)amino]carbonyl}phenyl)-N-[3-({[6-(trifluoromethyl)pyridin-3-yl]carbonyl}amino)propyl]pyrazine-2-carboxamide] here?
A: The IC50 was at least 10 µM.

Q: How did the IC50 turn out when `Nc1ncc(-c2cccc(C(=O)NCc3ccccc3)c2)nc1C(=O)NCCCNS(=O)(=O)c1cccc2cccnc12` [Example 653, 3-amino-6-(3-{[(phenylmethyl)amino]carbonyl}phenyl)-N-{3-[(quinolin-8-ylsulfonyl)amino]propyl}pyrazine-2-carboxamide] was run?
A: Its IC50 is at least 10 µM.

Q: `Nc1ncc(-c2cccc(C(=O)NCc3ccccc3)c2)nc1C(=O)NCCCNS(=O)(=O)c1ccccn1` [Example 654, 3-amino-6-(3-{[(phenylmethyl)amino]carbonyl}phenyl)-N-{3-[(pyridin-2-ylsulfonyl)amino]propyl}pyrazine-2-carboxamide] was tested. Which IC50 did it give?
A: Its IC50 is 1 to 10 µM.

Q: Which IC50 does the source give for `Cc1noc(C)c1NC(=O)NCCCNC(=O)c1nc(-c2cccc(C(=O)NCc3ccccc3)c2)cnc1N` [Example 655, 3-amino-N-[3-({[(3,5-dimethylisoxazol-4-yl)amino]carbonyl}amino)propyl]-6-(3-{[(phenylmethyl)amino]carbonyl}phenyl)pyrazine-2-carboxamide] here?
A: The IC50 was 1 to 10 µM.

Q: With `Cc1nccc(-c2nc(-c3cccc(C(=O)NCc4ccccc4)c3)cnc2N)n1` [Example 656, 3-[5-amino-6-(2-methylpyrimidin-4-yl)pyrazin-2-yl]-N-(phenylmethyl)benzamide] as the compound, how does the IC50 read?
A: Its IC50 is 1 to 10 µM.

Q: With `CNc1nccc(-c2nc(-c3cccc(C(=O)NCc4ccccc4)c3)cnc2N)n1` [Example 657, 3-{5-amino-6-[2-(methylamino)pyrimidin-4-yl]pyrazin-2-yl}-N-(phenylmethyl)benzamide] as the compound, how does the IC50 read?
A: The IC50 was at least 10 µM.

Q: Which IC50 does the source give for `Nc1ncc(-c2cccc(C(=O)NCc3ccccc3)c2)nc1C(=O)NCCNC(=O)c1ccncc1` [Example 658, 3-amino-6-(3-{[(phenylmethyl)amino]carbonyl}phenyl)-N-{2-[(pyridin-4-ylcarbonyl)amino]ethyl}pyrazine-2-carboxamide] here?
A: The IC50 was 1 to 10 µM.

Q: How did the IC50 turn out when `Nc1ncc(-c2cccc(C(=O)NCc3ccccc3)c2)nc1C(=O)NCCNC(=O)c1ccco1` [Example 659, 3-amino-N-{2-[(furan-2-ylcarbonyl)amino]ethyl}-6-(3-{[(phenylmethyl)amino]carbonyl}phenyl)pyrazine-2-carboxamide] was run?
A: The IC50 was at least 10 µM.

Q: `Nc1ncc(-c2cccc(C(=O)NCc3ccccc3)c2)nc1C(=O)NC1CCCCC1NC(=O)c1nc(-c2cccc(C(=O)NCc3ccccc3)c2)cnc1N` (stereo not shown) [Example 660, N,N′-cyclohexane-1,2-diylbis[3-amino-6-(3-{[(phenylmethyl)amino]carbonyl}phenyl)pyrazine-2-carboxamide]] was tested. Which IC50 did it give?
A: The IC50 was at least 10 µM.

Q: Which IC50 does the source give for `CC(=O)NCCNC(=O)c1nc(-c2cccc(C(=O)NCc3ccccc3)c2)cnc1N` [Example 661, N-[2-(acetylamino)ethyl]-3-amino-6-(3-{[(phenylmethyl)amino]carbonyl}phenyl)pyrazine-2-carboxamide] here?
A: Its IC50 is 1 to 10 µM.

Q: Which IC50 does the source give for `Nc1ncc(-c2cccc(C(=O)NCc3ccccc3)c2)nc1C(=O)NCCNS(=O)(=O)c1cccc2cccnc12` [Example 662, 3-amino-6-(3-{[(phenylmethyl)amino]carbonyl}phenyl)-N-{2-[(quinolin-8-ylsulfonyl)amino]ethyl}pyrazine-2-carboxamide] here?
A: Its IC50 is at least 10 µM.

Q: Which IC50 does the source give for `Nc1ncc(-c2cccc(C(=O)NCc3ccccc3)c2)nc1C(=O)NCCNC(=O)c1cnc2ccccc2n1` [Example 663, N-[2-({[3-amino-6-(3-{[(phenylmethyl)amino]carbonyl}phenyl)pyrazin-2-yl]carbonyl}amino)ethyl]quinoxaline-2-carboxamide] here?
A: Its IC50 is at least 10 µM.

Q: `Nc1ncc(-c2cccc(C(=O)NCc3ccccc3)c2)nc1C(=O)NCCNC(=O)c1cccnc1Cl` [Example 664, 3-amino-N-(2-{[(2-chloropyridin-3-yl)carbonyl]amino}ethyl)-6-(3-{[(phenylmethyl)amino]carbonyl}phenyl)pyrazine-2-carboxamide] was tested. Which IC50 did it give?
A: The IC50 was 1 to 10 µM.

Q: How did the IC50 turn out when `Nc1ncc(-c2cccc(C(=O)NCc3ccccc3)c2)nc1C(=O)NCCNS(=O)(=O)c1ccccn1` [Example 665, 3-amino-6-(3-{[(phenylmethyl)amino]carbonyl}phenyl)-N-{2-[(pyridin-2-ylsulfonyl)amino]ethyl}pyrazine-2-carboxamide] was run?
A: Its IC50 is at least 10 µM.

Q: For `Cc1noc(C)c1NC(=O)NCCNC(=O)c1nc(-c2cccc(C(=O)NCc3ccccc3)c2)cnc1N` [Example 666, 3-amino-N-[2-({[(3,5-dimethylisoxazol-4-yl)amino]carbonyl}amino)ethyl]-6-(3-{[(phenylmethyl)amino]carbonyl}phenyl)pyrazine-2-carboxamide], which IC50 is on record?
A: The IC50 was 1 to 10 µM.

Q: `NC(=O)c1nc(-c2cccc(C(=O)NCc3ccccc3)c2)cnc1N` [Example 667, 3-amino-6-(3-{[(phenylmethyl)amino]carbonyl}phenyl)pyrazine-2-carboxamide] was tested. Which IC50 did it give?
A: The IC50 was 0.05 to 1 µM.

Q: Which IC50 does the source give for `N=C(NNc1nccc(C(F)(F)F)n1)c1nc(-c2cccc(C(=O)NCc3ccccc3)c2)cnc1N` [Example 668, 3-[5-amino-6-(imino{2-[4-(trifluoromethyl)pyrimidin-2-yl]hydrazino}methyl)pyrazin-2-yl]-N-(phenylmethyl)benzamide] here?
A: The IC50 was 1 to 10 µM.

Q: `N=C(NNc1nc2ccccc2s1)c1nc(-c2cccc(C(=O)NCc3ccccc3)c2)cnc1N` [Example 669, 3-{5-amino-6-[[2-(1,3-benzothiazol-2-yl)hydrazino](imino)methyl]pyrazin-2-yl}-N-(phenylmethyl)benzamide] was tested. Which IC50 did it give?
A: The IC50 was at least 10 µM.

Q: How did the IC50 turn out when `Nc1ncc(-c2cccc(C(=O)NCc3ccccc3)c2)nc1-c1nc(-c2ccccc2)n(-c2ccccc2)n1` [Example 670, 3-[5-amino-6-(1,5-diphenyl-1H-1,2,4-triazol-3-yl)pyrazin-2-yl]-N-(phenylmethyl)benzamide] was run?
A: The IC50 was at least 10 µM.

Q: With `Cc1nc(-c2nc(-c3cccc(C(=O)NCc4ccccc4)c3)cnc2N)nn1C` [Example 671, 3-[5-amino-6-(1,5-dimethyl-1H-1,2,4-triazol-3-yl)pyrazin-2-yl]-N-(phenylmethyl)benzamide] as the compound, how does the IC50 read?
A: Its IC50 is 1 to 10 µM.

Q: With `Cn1nc(-c2nc(-c3cccc(C(=O)NCc4ccccc4)c3)cnc2N)nc1-c1ccccc1` [Example 672, 3-[5-amino-6-(1-methyl-5-phenyl-1H-1,2,4-triazol-3-yl)pyrazin-2-yl]-N-(phenylmethyl)benzamide] as the compound, how does the IC50 read?
A: Its IC50 is at least 10 µM.

Q: With `COC[C@H]1CCCN1/N=C(\C)c1nc(-c2cccc(C(=O)NCc3ccccc3)c2)cnc1N` [Example 673, 3-[5-amino-6-((1E)-N-{(2R)-2-[(methyloxy)methyl]pyrrolidin-1-yl}ethanimidoyl)pyrazin-2-yl]-N-(phenylmethyl)benzamide] as the compound, how does the IC50 read?
A: Its IC50 is 0.05 to 1 µM.

Q: With `C/C(=N\N1CCCCCC1)c1nc(-c2cccc(C(=O)NCc3ccccc3)c2)cnc1N` [Example 674, 3-{5-amino-6-[(1E)-N-azepan-1-ylethanimidoyl]pyrazin-2-yl}-N-(phenylmethyl)benzamide] as the compound, how does the IC50 read?
A: Its IC50 is 0.05 to 1 µM.

Q: `Nc1ncc(-c2cccc(C(=O)NCc3ccccc3)c2)nc1/C=N/NCc1ccccc1` [Example 675, 3-(5-amino-6-{(E)-[(phenylmethyl)hydrazono]methyl}pyrazin-2-yl)-N-(phenylmethyl)benzamide] was tested. Which IC50 did it give?
A: The IC50 was at least 10 µM.

Q: With `N=C(N)N/N=C/c1nc(-c2cccc(C(=O)NCc3ccccc3)c2)cnc1N` [Example 676, 3-[5-amino-6-((E)-{[amino(imino)methyl]hydrazono}methyl)pyrazin-2-yl]-N-(phenylmethyl)benzamide] as the compound, how does the IC50 read?
A: Its IC50 is at least 10 µM.

Q: Which IC50 does the source give for `Nc1ncc(-c2cccc(C(=O)NCc3ccccc3)c2)nc1/C=N/NCCO` [Example 677, 3-(5-amino-6-{(E)-[(2-hydroxyethyl)hydrazono]methyl}pyrazin-2-yl)-N-(phenylmethyl)benzamide] here?
A: Its IC50 is 1 to 10 µM.

Q: `Nc1ncc(-c2cccc(C(=O)NCc3ccccc3)c2)nc1/C=N/Nc1ccccn1` [Example 678, 3-{5-amino-6-[(E)-(pyridin-2-ylhydrazono)methyl]pyrazin-2-yl}-N-(phenylmethyl)benzamide] was tested. Which IC50 did it give?
A: The IC50 was at least 10 µM.

Q: For `N#Cc1ccc(N/N=C/c2nc(-c3cccc(C(=O)NCc4ccccc4)c3)cnc2N)cc1` [Example 679, 3-(5-amino-6-{(E)-[(4-cyanophenyl)hydrazono]methyl}pyrazin-2-yl)-N-(phenylmethyl)benzamide], which IC50 is on record?
A: The IC50 was at least 10 µM.

Q: Which IC50 does the source give for `Cc1ccc(N/N=C/c2nc(-c3cccc(C(=O)NCc4ccccc4)c3)cnc2N)cc1` [Example 680, 3-(5-amino-6-{(E)-[(4-methylphenyl)hydrazono]methyl}pyrazin-2-yl)-N-(phenylmethyl)benzamide] here?
A: Its IC50 is at least 10 µM.
